# Measured values taken from patent US11512111B2, “Yeats inhibitors and methods of use thereof” (The University of Hong Kong, priority 2017, dated 2022).
# Experiments:
# MOLM13 (FLAG-ENL) cells = assay: Cell proliferation, trypan blue exclusion count; type: cell-based; conditions: 50 μM, live cells counted every 2-3 days
# Experimental: (§1) MOLM13 (FLAG-ENL) cells were cultured with or without 50 μM compound XL-13m. Every 2-3 days, live cells were counted by trypan blue exclusion assay and re-plated. […] MOLM13 (FLAG-ENL) cells were cultured with or without 50 μM compound XL-13m for 24 hours, and the cells were treated with 50 μM for another 24 hours. […] Expression of c-Myc was quantified by qPCR.
# ENL [1] = biological target: T1, ENL (Homo sapiens, UniProt Q03111); assay: Cellular thermal shift assay (CETSA) in MOLM-13 (FLAG-ENL) cells; type: cell-based; conditions: MOLM13 (FLAG-ENL), 50 μM, 16 hours, anti-FLAG
# T1 construct: expressed in transfected cells; host or cells: MOLM-13 (FLAG-ENL) cells
# T1 sequence (Q03111 1-559): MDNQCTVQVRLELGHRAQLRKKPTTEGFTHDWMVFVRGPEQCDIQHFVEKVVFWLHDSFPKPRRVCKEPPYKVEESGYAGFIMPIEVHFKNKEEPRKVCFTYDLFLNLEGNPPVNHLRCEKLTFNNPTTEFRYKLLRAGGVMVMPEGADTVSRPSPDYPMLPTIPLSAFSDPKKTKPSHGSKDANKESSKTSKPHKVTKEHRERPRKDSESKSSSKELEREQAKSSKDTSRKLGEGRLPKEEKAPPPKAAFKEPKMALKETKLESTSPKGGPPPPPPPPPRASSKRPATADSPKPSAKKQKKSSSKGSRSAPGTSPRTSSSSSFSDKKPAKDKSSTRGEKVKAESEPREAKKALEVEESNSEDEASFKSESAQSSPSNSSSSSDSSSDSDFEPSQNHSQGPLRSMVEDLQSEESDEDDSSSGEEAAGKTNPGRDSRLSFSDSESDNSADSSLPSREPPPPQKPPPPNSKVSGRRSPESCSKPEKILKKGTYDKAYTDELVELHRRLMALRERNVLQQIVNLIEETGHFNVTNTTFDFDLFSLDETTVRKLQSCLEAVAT
# Experimental: We next applied the cellular thermal shift assay (CETSA) to examine if XL-13m was cell permeable and could target ENL in living cells. MOLM-13 (FLAG-ENL) were treated with XL-13m for […] and then heated at different temperature to denature and precipitate proteins. […] Soluble proteins were extracted by freeze-thaw cycle and subjected to western blotting analysis.
# (§2) MOLM13 (FLAG-ENL) cells were incubated with or without 50 μM compound for 16 hours and then were collected for cellular thermal shift assay (CETSA) as previously reported. Anti-FLAG antibody was used to detect ENL proteins and γ-actin blotting served as negative control.
# c-Myc expression = assay: JQ1-induced decrease of c-Myc expression, qPCR; type: cell-based; conditions: MOLM13 (FLAG-ENL), 50 μM, 24 hours then another 24 hours
# Description: (§3) FIG. 49A is a graph showing the effect of treatment of MOLM13 cells with compound 39 (XL-13m) on the sensitivity of JQ1-induced decrease in c-Myc expression. Expression of c-Myc was quantified by qPCR. P value by student's t-test. Mean±s.d., three biological replicates. FIG. 49B is a graph showing the effect of treatment of MOLM13 cells with compound 39 (XL-13m) on enrichment of ENL on indicated genes. […] P value by student's t-test. Mean±s.d., triplicate PCR analysis.
# as §1
# ENL [2] = biological target: T1, ENL; assay: ChIP-qPCR of ENL enrichment on genes in MOLM13 (FLAG-ENL) cells; type: cell-based; conditions: 50 μM, 72 hours
# Description: as §3
# as §2, with “MOLM13 (FLAG-ENL) cells were cultured with or without 50 μM compound XL-13m for 72 hours. […] MOLM13” for “MOLM13”
# ENL YEATS domain = biological target: T2, ENL YEATS domain (Homo sapiens, UniProt Q03111); assay: Photo-cross-linking-based competition assay; type: binding; conditions: competition with photoaffinity probe, in-gel fluorescence
# T2 construct: His-SUMO-ENL (1-138); His (N); SUMO (N); made in house; host or cells: E. coli Rosetta
# T2 sequence (Q03111 1-138): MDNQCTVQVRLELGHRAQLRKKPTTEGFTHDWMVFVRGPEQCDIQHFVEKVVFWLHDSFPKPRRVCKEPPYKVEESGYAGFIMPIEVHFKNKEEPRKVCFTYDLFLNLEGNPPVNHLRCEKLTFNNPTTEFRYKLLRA
# AF9 YEATS domain = biological target: T3, AF9 YEATS domain (Homo sapiens, UniProt P42568); assay: Photo-cross-linking-based competition assay (photoaffinity probe, click chemistry, in-gel fluorescence); type: binding; conditions: ratio of IC50 values
# T3 construct: His-AF9 (1-138); His (N); made in house; host or cells: E. coli Rosetta
# T3 sequence (P42568 1-138): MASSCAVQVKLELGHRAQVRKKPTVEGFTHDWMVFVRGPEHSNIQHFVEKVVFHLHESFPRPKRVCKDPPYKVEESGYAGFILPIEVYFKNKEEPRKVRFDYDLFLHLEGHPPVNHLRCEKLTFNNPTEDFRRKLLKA
# Experimental: Mobile phase used were water with 0.1% trifluoroacetic acid (buffer A) and 90% acetonitrile in water with 0.1% trifluoroacetic acid (buffer B). The purity (>95%) and identity of peptides were confirmed by LC-MS. The inhibitory activities of the inhibitors were determined by a photo-cross-linking-based competition assay. […] The reactions were incubated for 1 h at r.t . . . . The reactions were quenched by adding 5 volumes of ice-cold acetone and placed at −20° C. overnight to precipitate proteins. After protein precipitation, samples were centrifuged at 6000×g for 5 min at 4° C. The supernatant was discarded and the pellet was washed with ice-cooled methanol twice and air-dried for 10 min. […] Samples were then resolved by SDS-PAGE. The labeled proteins were visualized by scanning the gel on a Typhoon 9410 variable mode imager (excitation 532 nm, emission filter 580 nm). A photo-cross-linking based method was used in this study to estimate inhibitory activity (FIG. 28). This method requires the use of a photoaffinity probe. The probe (probe 1 (SEQ ID NO:48), see below) is derived from a crotonylated peptide, ligand of the protein, carrying a photo-cross-linker and a terminal alkyne as bioorthogonal. The YEATS domain is incubated and bound to the probe through Kcr-dependent recognition. Upon UV-irradiation, the photo-cross-linker is activated and rapidly cross-linked to the protein, converting the non-covalent protein-probe interaction into a covalent linkage. The probe-labeled protein is subsequently conjugated to an azide-functionalized fluorescence dye (for example, rhodamine-N3, Rho-N3) via Cu(I)-catalyzed azide-alkyne cycloaddition (CuAAC, or “click” chemistry). After SDS-PAGE, the protein can be visualized by in-gel fluorescence scanning. If photo-cross-linking of the YEATS domain with photoaffinity probe is performed in the presence of an inhibitor, which occupies the Kcr binding pocket of the YEATS domain and thus inhibits the protein-probe interaction, the percentage of the YEATS domain in the sample that is labeled by the probe will be reduced. The in-gel fluorescence intensity detected will also be decreased. By varying the concentration of inhibitor added in the sample and quantifying the resulting fluorescence intensities, a competition curve of the inhibitor toward the protein-probe interaction will be obtained, which can be used to estimate the IC50 value. Due to the covalent nature of photo-cross-linking, weak protein-protein interactions can be captured and eventually visualized. The protein concentration used in the assay can be as low as several nanograms per microliter, while the fluorescence signal can still be robustly detected and quantified.
compound,measurement,setting,value
CC(=O)N[C@@H](C)C(=O)N[C@@H](CCCNC(=N)N)C(=O)N[C@@H](CCCCNC(=O)c1cnco1)C(N)=O [Compound 39],effect on cell proliferation,MOLM13 (FLAG-ENL) cells,affected cell proliferation
same,thermal shift: targeting of ENL protein in living cells,ENL [1],revealed the target of ENL protein
same,sensitivity of JQ1-induced decrease of c-Myc expression,c-Myc expression,increased the sensitivity
same,enrichment of ENL on indicated genes,ENL [2],decrease of the enrichment of ENL
same,IC50,ENL YEATS domain,560 nM
same,activity on AF9 weaker than on ENL,AF9 YEATS domain,4.5 fold
